# Data: patent US20250213735A1, “NEUROPEPTIDE Y1 RECEPTOR (NPY1R) TARGETED THERAPEUTICS AND USES THEREOF” (Radionetics Oncology, Inc., priority 2023, published 2025)
# Molecular target: hNPY1R (Homo sapiens (Human), UniProt P25929)
# Test: NPY1R binding assay (SK-N-MC membrane, [125I]-Peptide YY competition);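 also: bound radioligand separated by filtration over GF/C filter plates and counted, Ki obtained by non-linear regression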
# Conditions: crude SK-N-MC membranes endogenously expressing NPY1R; [125I]-Peptide YY (human) 0.05 nM; 120 min at room temperature; read-out: hNPY1R binding Ki
# Chain of hNPY1R (P25929 whole entry): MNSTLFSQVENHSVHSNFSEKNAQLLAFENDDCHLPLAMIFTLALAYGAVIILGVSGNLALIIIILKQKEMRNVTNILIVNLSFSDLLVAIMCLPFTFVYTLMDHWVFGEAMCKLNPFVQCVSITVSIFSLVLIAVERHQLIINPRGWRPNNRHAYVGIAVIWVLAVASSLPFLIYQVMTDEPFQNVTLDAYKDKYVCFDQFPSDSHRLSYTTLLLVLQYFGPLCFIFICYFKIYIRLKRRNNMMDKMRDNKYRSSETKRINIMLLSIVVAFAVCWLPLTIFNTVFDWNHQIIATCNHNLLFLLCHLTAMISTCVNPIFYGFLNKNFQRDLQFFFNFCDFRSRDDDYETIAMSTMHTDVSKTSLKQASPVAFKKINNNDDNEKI
row,Structure (SMILES),Ki
1,"CCC(=O)NCCNC(=O)/N=C(/N)NCCC[C@@H](NC(=O)[C@H](c1cccc(NCCCNC(=O)[C@H](N)CCCCNC(=O)CN2CCN(CC(=O)O)CCN(CC(=O)O)CCN(CC(=O)O)CC2)c1)N1Cc2ccccc2C1)C(=O)NCc1ccc(O)cc1 [compound 25, 2,2′,2″-(10-(2-(((R)-5-amino-6-((3-((3-((1S,4R,Z)-9-amino-4-((4-hydroxybenzyl)carbamoyl)-1-(isoindolin-2-yl)-2,11,16-trioxo-3,8,10,12,15-pentaazaoctadec-9-en-1-yl)phenyl)amino)propyl)amino)-6-oxohexyl)amino)-2-oxoethyl)-1,4,7,10-tetraazacyclododecane-1,4,7-triyl)triacetic acid]",< 10 nM
2,"CCC(=O)NCCNC(=O)/N=C(/N)NCCC[C@@H](NC(=O)[C@H](c1cccc(NCCCNC(=O)CCC(=O)NCCNC(=O)CN2CCN(CC(=O)O)CCN(CC(=O)O)CCN(CC(=O)O)CC2)c1)N1Cc2ccccc2C1)C(=O)NCc1ccc(O)cc1 [compound 26, 2,2′,2″-(10-(2-((2-(4-((3-((3-((1S,4R,Z)-9-amino-4-((4-hydroxybenzyl)carbamoyl)-1-(isoindolin-2-yl)-2,11,16-trioxo-3,8,10,12,15-pentaazaoctadec-9-en-1-yl)phenyl)amino)propyl)amino)-4-oxobutanamido)ethyl)amino)-2-oxoethyl)-1,4,7,10-tetraazacyclododecane-1,4,7-triyl)triacetic acid]",< 10 nM
3,"CCC(=O)NCCNC(=O)/N=C(/N)NCCC[C@@H](NC(=O)[C@H](c1cccc(NCCCNC(=O)CCCCCNC(=O)NCCONC(=O)CN2CCN(CC(=O)O)CCN(CC(=O)O)CCN(CC(=O)O)CC2)c1)N1Cc2ccccc2C1)C(=O)NCc1ccc(O)cc1 [compound 27, 2,2′,2″-(10-(19-((3-((1S,4R,Z)-9-amino-4-((4-hydroxybenzyl)carbamoyl)-1-(isoindolin-2-yl)-2,11,16-trioxo-3,8,10,12,15-pentaazaoctadec-9-en-1-yl)phenyl)amino)-2,8,15-trioxo-4-oxa-3,7,9,16-tetraazanonadecyl)-1,4,7,10-tetraazacyclododecane-1,4,7-triyl)triacetic acid]",< 10 nM
4,"CCC(=O)NCCNC(=O)/N=C(/N)NCCC[C@@H](NC(=O)[C@H](c1cccc(NCCCNC(=O)CCCCCNC(=O)CN2CCC(NC(=O)CN3CCN(CC(=O)O)CCN(CC(=O)O)CCN(CC(=O)O)CC3)CC2)c1)N1Cc2ccccc2C1)C(=O)NCc1ccc(O)cc1 [compound 28, 2,2′,2″-(10-(2-((1-(2-((6-((3-((3-((1S,4R,Z)-9-amino-4-((4-hydroxybenzyl)carbamoyl)-1-(isoindolin-2-yl)-2,11,16-trioxo-3,8,10,12,15-pentaazaoctadec-9-en-1-yl)phenyl)amino)propyl)amino)-6-oxohexyl)amino)-2-oxoethyl)piperidin-4-yl)amino)-2-oxoethyl)-1,4,7,10-tetraazacyclododecane-1,4,7-triyl)triacetic acid]",< 10 nM
5,"CCC(=O)NCCNC(=O)/N=C(/N)NCCC[C@@H](NC(=O)[C@H](c1cccc(NCCCNC(=O)C[C@H](O)C[C@H](O)CCNC(=O)CN2CCN(CC(=O)O)CCN(CC(=O)O)CCN(CC(=O)O)CC2)c1)N1Cc2ccccc2C1)C(=O)NCc1ccc(O)cc1 [compound 29, 2,2′,2″-(10-(2-(((3R,5R)-7-((3-((3-((1S,4R,Z)-9-amino-4-((4-hydroxybenzyl)carbamoyl)-1-(isoindolin-2-yl)-2,11,16-trioxo-3,8,10,12,15-pentaazaoctadec-9-en-1-yl)phenyl)amino)propyl)amino)-3,5-dihydroxy-7-oxoheptyl)amino)-2-oxoethyl)-1,4,7,10-tetraazacyclododecane-1,4,7-triyl)triacetic acid]",< 10 nM
6,"CCC(=O)NCCNC(=O)/N=C(/N)NCCC[C@@H](NC(=O)[C@H](c1cccc(NCCCNC(=O)[C@@H](CO)NC(=O)CCNC(=O)CN2CCN(CC(=O)O)CCN(CC(=O)O)CCN(CC(=O)O)CC2)c1)N1Cc2ccccc2C1)C(=O)NCc1ccc(O)cc1 [compound 30, 2,2′,2″-(10-(2-((3-(((R)-1-((3-((3-((1S,4R,Z)-9-amino-4-((4-hydroxybenzyl)carbamoyl)-1-(isoindolin-2-yl)-2,11,16-trioxo-3,8,10,12,15-pentaazaoctadec-9-en-1-yl)phenyl)amino)propyl)amino)-3-hydroxy-1-oxopropan-2-yl)amino)-3-oxopropyl)amino)-2-oxoethyl)-1,4,7,10-tetraazacyclododecane-1,4,7-triyl)triacetic acid]",< 10 nM
7,"CCC(=O)NCCNC(=O)/N=C(/N)NCCC[C@@H](NC(=O)[C@H](c1ccccc1)N1Cc2cccc(NCCCNC(=O)CCCCCNC(=O)CN3CCN(CC(=O)O)CCN(CC(=O)O)CCN(CC(=O)O)CC3)c2C1)C(=O)NCc1c(F)cc(O)cc1F [compound 33, 2,2′,2″-(10-(2-((6-((3-((2-((1S,4R,Z)-9-amino-4-((2,6-difluoro-4-hydroxybenzyl)carbamoyl)-2,11,16-trioxo-1-phenyl-3,8,10,12,15-pentaazaoctadec-9-en-1-yl)isoindolin-4-yl)amino)propyl)amino)-6-oxohexyl)amino)-2-oxoethyl)-1,4,7,10-tetraazacyclododecane-1,4,7-triyl)triacetic acid]",< 10 nM
8,"CCC(=O)NCCNC(=O)/N=C(/N)NCCC[C@@H](NC(=O)[C@H](c1ccccc1)N1Cc2cccc(NCCCNc3c(NCCCCCCNC(=O)CN4CCN(CC(=O)O)CCN(CC(=O)O)CCN(CC(=O)O)CC4)c(=O)c3=O)c2C1)C(=O)NCc1c(F)cc(O)cc1F [compound 34, 2,2′,2″-(10-(2-((6-((2-((3-((2-((1S,4R,Z)-9-amino-4-((2,6-difluoro-4-hydroxybenzyl)carbamoyl)-2,11,16-trioxo-1-phenyl-3,8,10,12,15-pentaazaoctadec-9-en-1-yl)isoindolin-4-yl)amino)propyl)amino)-3,4-dioxocyclobut-1-en-1-yl)amino)hexyl)amino)-2-oxoethyl)-1,4,7,10-tetraazacyclododecane-1,4,7-triyl)triacetic acid]",< 10 nM
9,"CCC(=O)NCCNC(=O)/N=C(/N)NCCC[C@@H](NC(=O)[C@H](c1ccc(OCCCN2CCN(C3CCN(C(=O)CCCCCNC(=O)CN4CCN(CC(=O)O)CCN(CC(=O)O)CCN(CC(=O)O)CC4)CC3)CC2)cc1)N1Cc2ccccc2C1)C(=O)NCc1c(F)cc(O)cc1F [compound 35, 2,2′,2″-(10-(2-((6-(4-(4-(3-(4-((1S,4R,Z)-9-amino-4-((2,6-difluoro-4-hydroxybenzyl)carbamoyl)-1-(isoindolin-2-yl)-2,11,16-trioxo-3,8,10,12,15-pentaazaoctadec-9-en-1-yl)phenoxy)propyl)piperazin-1-yl)piperidin-1-yl)-6-oxohexyl)amino)-2-oxoethyl)-1,4,7,10-tetraazacyclododecane-1,4,7-triyl)triacetic acid]",< 10 nM
10,"CCC(=O)NCCNC(=O)/N=C(/N)NCCC[C@@H](NC(=O)[C@H](c1ccc(OCCCNC(=O)CCCCCNC(=O)CN2CCN(CC(=O)O)CCN(CC(=O)O)CCN(CC(=O)O)CC2)cc1)N1Cc2ccccc2C1)C(=O)NCc1c(F)cc(O)cc1F [compound 36, 2,2′,2″-(10-(2-((6-((3-(4-((1S,4R,Z)-9-amino-4-((2,6-difluoro-4-hydroxybenzyl)carbamoyl)-1-(isoindolin-2-yl)-2,11,16-trioxo-3,8,10,12,15-pentaazaoctadec-9-en-1-yl)phenoxy)propyl)amino)-6-oxohexyl)amino)-2-oxoethyl)-1,4,7,10-tetraazacyclododecane-1,4,7-triyl)triacetic acid]",< 10 nM
11,"CCC(=O)NCCNC(=O)/N=C(/N)NCCC[C@@H](NC(=O)[C@H](c1ccc(OCCCNc2c(NCCCCCCNC(=O)CN3CCN(CC(=O)O)CCN(CC(=O)O)CCN(CC(=O)O)CC3)c(=O)c2=O)cc1)N1Cc2ccccc2C1)C(=O)NCc1c(F)cc(O)cc1F [compound 37, 2,2′,2″-(10-(2-((6-((2-((3-(4-((1S,4R,Z)-9-amino-4-((2,6-difluoro-4-hydroxybenzyl)carbamoyl)-1-(isoindolin-2-yl)-2,11,16-trioxo-3,8,10,12,15-pentaazaoctadec-9-en-1-yl)phenoxy)propyl)amino)-3,4-dioxocyclobut-1-en-1-yl)amino)hexyl)amino)-2-oxoethyl)-1,4,7,10-tetraazacyclododecane-1,4,7-triyl)triacetic acid]",< 10 nM
12,"CCC(=O)NCCNC(=O)/N=C(/N)NCCC[C@@H](NC(=O)[C@H](c1ccc(OCCCNC(=O)C[C@H]2NC(=O)[C@@H](CCCNC(=O)CN3CCN(CC(=O)O)CCN(CC(=O)O)CCN(CC(=O)O)CC3)NC2=O)cc1)N1Cc2ccccc2C1)C(=O)NCc1c(F)cc(O)cc1F [compound 38, 2,2′,2″-(10-(2-((3-((2R,5R)-5-(2-((3-(4-((1S,4R,Z)-9-amino-4-((2,6-difluoro-4-hydroxybenzyl)carbamoyl)-1-(isoindolin-2-yl)-2,11,16-trioxo-3,8,10,12,15-pentaazaoctadec-9-en-1-yl)phenoxy)propyl)amino)-2-oxoethyl)-3,6-dioxopiperazin-2-yl)propyl)amino)-2-oxoethyl)-1,4,7,10-tetraazacyclododecane-1,4,7-triyl)triacetic acid]",< 10 nM
13,"CCC(=O)NCCNC(=O)/N=C(/N)NCCC[C@@H](NC(=O)[C@H](c1ccc(OCCCN2CCN(C(=O)CCCCCNC(=O)CN3CCN(CC(=O)O)CCN(CC(=O)O)CCN(CC(=O)O)CC3)CC2)cc1)N1Cc2ccccc2C1)C(=O)NCc1c(F)cc(O)cc1F [compound 39, 2,2′,2″-(10-(2-((6-(4-(3-(4-((1S,4R,Z)-9-amino-4-((2,6-difluoro-4-hydroxybenzyl)carbamoyl)-1-(isoindolin-2-yl)-2,11,16-trioxo-3,8,10,12,15-pentaazaoctadec-9-en-1-yl)phenoxy)propyl)piperazin-1-yl)-6-oxohexyl)amino)-2-oxoethyl)-1,4,7,10-tetraazacyclododecane-1,4,7-triyl)triacetic acid]",< 10 nM
